Literature values as cited in US20260027218A1, “STAR-SHAPED GRAFT COPOLYMERS” (POLYPEPTIDE THERAPEUTIC SOLUTIONS, S.L., priority 2022, published 2026).

log P: 2.98
Compound: CCN(CC)c1ccc2nc3c4ccccc4c(=O)cc-3oc2c1 [Nile Red]
